Assay results published in article PMC5896380, “Selective imaging of cathepsin L in breast cancer by fluorescent activity-based probes” (Chemical Science, 2018).
Like-named read-outs stand apart in the source and are kept apart here. Non-standard residues stand in square brackets, D forms with d. *: point of attachment. Phe(F5) = N[C@@H](Cc1c(F)c(F)c(F)c(F)c1F)C(=O)O; Phe(3-Cl) = N[C@@H](Cc1cccc(Cl)c1)C(=O)O; ACC = NC(=O)Cc1cc(=O)oc2cc(N*)ccc12; hArg = N=C(N)NCCCC[C@H](N)C(=O)O; ClZ = O=C(OCc1ccccc1Cl)*; Orn = NCCC[C@H](N)C(=O)O; Dab = NCC[C@H](N)C(=O)O; Dap = NC[C@H](N)C(=O)O; Mob = COc1ccc(C*)cc1; Meb = Cc1ccc(C*)cc1; OBn = c1ccc(CO*)cc1; Bn = c1ccc(C*)cc1

Columns and labels:
Type in all cases: biochemical
cathepsin L = target: T1, cathepsin L (Homo sapiens, UniProt P07711); experiment: Kinetic parameters of ACC substrates with cathepsin L; settings: for hydrolysis by cathepsin L relative to Ac-His-Arg-Phe-Arg-ACC substrate: kcat/KM compared with reference substrate; for kcat/KM Cath-L: Fig. 5B, triplicate
T1 construct: made in house
Method: (§1) All kinetic experiments were performed using fMax (Molecular Devices) and CLARIOStar (BMG LABTECH) spectrofluorimeters operating in kinetic mode using 96-well plates. ACC-labeled substrates were screened using 355 nm and 460 nm wavelengths (excitation and emission, respectively). […] The buffer was prepared at room temperature and the enzyme kinetic studies were performed at 37 °C.
(§2) Classic substrate velocity plots were analyzed according to Michaelis–Menten kinetics and a detailed protocol for the determination of kinetic parameters for ACC-tagged substrates is found elsewhere.[56] […] Experiments were repeated at least three times and results are presented as an average. The SDs were below 15%.

cathepsin K = target: T2, cathepsin K (Homo sapiens, UniProt P43235); experiment: Kinetic parameters of ACC substrates with cathepsin K; settings: for kcat/KM Cath-K: Fig. 5B, pH 5.5, 37 °C, cathepsin K 5–20 nM, triplicate, SD below 15%
T2 construct: made in house
T2 sequence (P43235 115-329): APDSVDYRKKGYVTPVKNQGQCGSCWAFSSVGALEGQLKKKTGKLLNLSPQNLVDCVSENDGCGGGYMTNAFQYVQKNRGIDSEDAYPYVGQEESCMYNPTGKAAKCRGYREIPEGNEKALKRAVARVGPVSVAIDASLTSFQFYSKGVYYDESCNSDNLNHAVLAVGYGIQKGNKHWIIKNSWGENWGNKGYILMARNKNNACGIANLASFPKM
Method: as §1, §2

cathepsin V = target: T3, cathepsin V (Homo sapiens, UniProt O60911); experiment: Kinetic parameters of ACC substrates with cathepsin V; settings: for kcat/KM Cath-V: Fig. 5B, pH 5.5, 37 °C, cathepsin V 10–20 nM, triplicate, SD below 15%
T3 construct: made in house
Method: as §1, §2

cathepsin B = target: T4, cathepsin B (Homo sapiens, UniProt P07858); experiment: Kinetic parameters of ACC substrates with cathepsin B; settings: for kcat/KM Cath-B: Fig. 5B, pH 5.5, 37 °C, cathepsin B 4–15 nM, triplicate, SD below 15%
T4 construct: made in house
Method: as §1, §2

cathepsin S = target: T5, cathepsin S (Homo sapiens, UniProt P25774); experiment: Kinetic parameters of ACC substrates with cathepsin S; settings: for kcat/KM Cath-S: Fig. 5B, pH 5.5, 37 °C, cathepsin S 5–20 nM, triplicate, SD below 15%
T5 construct: made in house
Method: as §1, §2

[1] = Fig. 4B, ACC substrates, 100 mM sodium acetate, 100 mM NaCl, 10 mM DTT, 1 mM EDTA, pH 5.5, 37 °C, cathepsin L 0.1–0.5 nM, average of at least three, SD below 15%
[2] = Table S2, cathepsin L, four independent experiments, S.D. below 15%
[3] = Table S2, cathepsin L, four independent experiments, S.D. below 15%, read-out: KM
[4] = pH 5.5, 37 °C, cathepsin L 0.1–0.5 nM, SD below 15%
[5] = Table S7, four independent experiments, S.D. below 15%

T1 sequence (P07711 114-333): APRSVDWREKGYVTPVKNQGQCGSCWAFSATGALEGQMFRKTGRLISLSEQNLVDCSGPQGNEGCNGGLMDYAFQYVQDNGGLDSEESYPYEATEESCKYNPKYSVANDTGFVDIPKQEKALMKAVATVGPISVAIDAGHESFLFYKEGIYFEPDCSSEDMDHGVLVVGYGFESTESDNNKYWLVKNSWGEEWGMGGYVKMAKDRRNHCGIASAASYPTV
T5 sequence (P25774 115-331): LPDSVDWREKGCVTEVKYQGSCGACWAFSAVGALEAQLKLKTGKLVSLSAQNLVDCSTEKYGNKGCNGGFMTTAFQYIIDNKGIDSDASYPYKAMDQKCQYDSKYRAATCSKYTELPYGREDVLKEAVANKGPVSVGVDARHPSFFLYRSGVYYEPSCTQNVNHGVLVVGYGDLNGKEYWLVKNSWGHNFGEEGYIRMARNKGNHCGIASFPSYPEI
T3 sequence (O60911 114-334): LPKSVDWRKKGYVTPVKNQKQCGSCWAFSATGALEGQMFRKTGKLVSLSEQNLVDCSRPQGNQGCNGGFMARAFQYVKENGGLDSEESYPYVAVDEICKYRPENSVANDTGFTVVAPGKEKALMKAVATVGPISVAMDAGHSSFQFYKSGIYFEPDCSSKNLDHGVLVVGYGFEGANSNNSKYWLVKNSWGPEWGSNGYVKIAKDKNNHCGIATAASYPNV

Substance	kcat/KM (cathepsin L; [1])	kcat (cathepsin L; [2])	kcat/KM (cathepsin L; [2])	Km (cathepsin L; [3])	other results
Ac-Dap-Orn-Phe(3-Cl)-Nle(OBzl)-ACC	47,400,000 M^-1s^-1	124 s⁻¹	47,400,000 M-1s-1	2.63 µM	hydrolysis by cathepsin L relative to Ac-His-Arg-Phe-Arg-ACC substrate (cathepsin L): ~4 times
Ac-H[dK][Phe(F5)]R-{ACC} (SMILES CC(=O)N[C@@H](Cc1c[nH]cn1)C(=O)N[C@H](CCCCN)C(=O)N[C@@H](Cc1c(F)c(F)c(F)c(F)c1F)C(=O)N[C@@H](CCCNC(=N)N)C(=O)Nc1ccc2c(CC(N)=O)cc(=O)oc2c1)	–	–	–	–	kcat/KM Cath-K (cathepsin K): 29 M⁻¹ s⁻¹; kcat/KM Cath-V (cathepsin V): 1,010 M^-1s^-1; kcat/KM Cath-B (cathepsin B): 175 M⁻¹ s⁻¹; kcat/KM Cath-L (cathepsin L; [4]): 715,000 M^-1s^-1; kcat/KM Cath-S (cathepsin S): < 10 M⁻¹ s⁻¹
Ac-H[dL][Phe(F5)]R-{ACC} (SMILES CC(=O)N[C@@H](Cc1c[nH]cn1)C(=O)N[C@H](CC(C)C)C(=O)N[C@@H](Cc1c(F)c(F)c(F)c(F)c1F)C(=O)N[C@@H](CCCNC(=N)N)C(=O)Nc1ccc2c(CC(N)=O)cc(=O)oc2c1)	–	–	–	–	kcat/KM Cath-K (cathepsin K): < 10 M⁻¹ s⁻¹; kcat/KM Cath-V (cathepsin V): 353 M⁻¹ s⁻¹; kcat/KM Cath-B (cathepsin B): 135 M⁻¹ s⁻¹; kcat/KM Cath-L (cathepsin L; [4]): 405,900 M^-1s^-1; kcat/KM Cath-S (cathepsin S): < 10 M⁻¹ s⁻¹
Ac-H[dQ][Phe(F5)]R-{ACC} (SMILES CC(=O)N[C@@H](Cc1c[nH]cn1)C(=O)N[C@H](CCC(N)=O)C(=O)N[C@@H](Cc1c(F)c(F)c(F)c(F)c1F)C(=O)N[C@@H](CCCNC(=N)N)C(=O)Nc1ccc2c(CC(N)=O)cc(=O)oc2c1)	–	–	–	–	kcat/KM Cath-K (cathepsin K): < 10 M⁻¹ s⁻¹; kcat/KM Cath-V (cathepsin V): 1,070 M^-1s^-1; kcat/KM Cath-B (cathepsin B): 130 M⁻¹ s⁻¹; kcat/KM Cath-L (cathepsin L; [4]): 336,900 M^-1s^-1; kcat/KM Cath-S (cathepsin S): < 10 M⁻¹ s⁻¹
Ac-H[dT][Phe(F5)]R-{ACC} (SMILES CC(=O)N[C@@H](Cc1c[nH]cn1)C(=O)N[C@@H](C(=O)N[C@@H](Cc1c(F)c(F)c(F)c(F)c1F)C(=O)N[C@@H](CCCNC(=N)N)C(=O)Nc1ccc2c(CC(N)=O)cc(=O)oc2c1)[C@H](C)O)	–	–	–	–	kcat/KM Cath-K (cathepsin K): < 10 M⁻¹ s⁻¹; kcat/KM Cat K (cathepsin K; [5]): < 10 M⁻¹ s⁻¹; kcat/KM Cath-V (cathepsin V): 286 M⁻¹ s⁻¹; kcat Cat V (cathepsin V; [5]): 0.0178 s⁻¹; kcat/KM Cat V (cathepsin V; [5]): 286 M⁻¹ s⁻¹; Km (cathepsin V; Table S7, four independent experiments, S.D. below 15%, read-out: KM Cat V): 61.4 µM; kcat/KM Cath-B (cathepsin B): 94 M⁻¹ s⁻¹; kcat Cat B (cathepsin B; [5]): 0.00673 s⁻¹; kcat/KM Cat B (cathepsin B; [5]): 94 M⁻¹ s⁻¹; Km (cathepsin B; Table S7, four independent experiments, S.D. below 15%, read-out: KM Cat B): 71.5 µM; kcat/KM Cath-L (cathepsin L; [4]): 729,200 M^-1s^-1; kcat Cat L (cathepsin L; [5]): 38.6 s⁻¹; Km (cathepsin L; Table S7, four independent experiments, S.D. below 15%, read-out: KM Cat L): 53.1 µM; kcat/KM Cath-S (cathepsin S): < 10 M⁻¹ s⁻¹; kcat/KM Cat S (cathepsin S; [5]): < 10 M⁻¹ s⁻¹
Ac-H[dV]T(Bn)R-{ACC} (SMILES CC(=O)N[C@@H](Cc1c[nH]cn1)C(=O)N[C@@H](C(=O)N[C@H](C(=O)N[C@@H](CCCNC(=N)N)C(=O)Nc1ccc2c(CC(N)=O)cc(=O)oc2c1)[C@@H](C)OCc1ccccc1)C(C)C)	–	–	–	–	kcat/KM Cath-K (cathepsin K): 130 M⁻¹ s⁻¹; kcat/KM Cath-V (cathepsin V): 424 M⁻¹ s⁻¹; kcat/KM Cath-B (cathepsin B): 480 M⁻¹ s⁻¹; kcat/KM Cath-L (cathepsin L; [4]): 158,520 M^-1s^-1; kcat/KM Cath-S (cathepsin S): < 10 M⁻¹ s⁻¹
Ac-[Dab]R[Phe(3-Cl)]R-{ACC} (SMILES CC(=O)N[C@@H](CCN)C(=O)N[C@@H](CCCNC(=N)N)C(=O)N[C@@H](Cc1cccc(Cl)c1)C(=O)N[C@@H](CCCNC(=N)N)C(=O)Nc1ccc2c(CC(N)=O)cc(=O)oc2c1)	31,960,000 M^-1s^-1	–	–	–	–
Ac-[Dab][Orn][Phe(3-Cl)]R-{ACC} (SMILES CC(=O)N[C@@H](CCN)C(=O)N[C@@H](CCCN)C(=O)N[C@@H](Cc1cccc(Cl)c1)C(=O)N[C@@H](CCCNC(=N)N)C(=O)Nc1ccc2c(CC(N)=O)cc(=O)oc2c1)	35,070,000 M^-1s^-1	–	–	–	–
Ac-[Dap]R[Phe(3-Cl)]R-{ACC} (SMILES CC(=O)N[C@@H](CN)C(=O)N[C@@H](CCCNC(=N)N)C(=O)N[C@@H](Cc1cccc(Cl)c1)C(=O)N[C@@H](CCCNC(=N)N)C(=O)Nc1ccc2c(CC(N)=O)cc(=O)oc2c1)	25,400,000 M^-1s^-1	–	–	–	–
Ac-[Dap][Orn][Phe(3-Cl)]C(Bn)-{ACC} (SMILES CC(=O)N[C@@H](CN)C(=O)N[C@@H](CCCN)C(=O)N[C@@H](Cc1cccc(Cl)c1)C(=O)N[C@@H](CSCc1ccccc1)C(=O)Nc1ccc2c(CC(N)=O)cc(=O)oc2c1)	45,420,000 M^-1s^-1	191 s⁻¹	45,420,000 M-1s-1	4.28 µM	–
Ac-[Dap][Orn][Phe(3-Cl)]C(Meb)-{ACC} (SMILES CC(=O)N[C@@H](CN)C(=O)N[C@@H](CCCN)C(=O)N[C@@H](Cc1cccc(Cl)c1)C(=O)N[C@@H](CSCc1ccc(C)cc1)C(=O)Nc1ccc2c(CC(N)=O)cc(=O)oc2c1)	41,660,000 M^-1s^-1	207 s⁻¹	–	4.99 µM	–
Ac-[Dap][Orn][Phe(3-Cl)]C(Mob)-{ACC} (SMILES COc1ccc(CSC[C@H](NC(=O)[C@H](Cc2cccc(Cl)c2)NC(=O)[C@H](CCCN)NC(=O)[C@H](CN)NC(C)=O)C(=O)Nc2ccc3c(CC(N)=O)cc(=O)oc3c2)cc1)	48,350,000 M^-1s^-1	193 s⁻¹	–	4.15 µM	hydrolysis by cathepsin L relative to Ac-His-Arg-Phe-Arg-ACC substrate (cathepsin L): ~4 times
Ac-[Dap][Orn][Phe(3-Cl)]E(OBn)-{ACC} (SMILES CC(=O)N[C@@H](CN)C(=O)N[C@@H](CCCN)C(=O)N[C@@H](Cc1cccc(Cl)c1)C(=O)N[C@@H](CCC(=O)OCc1ccccc1)C(=O)Nc1ccc2c(CC(N)=O)cc(=O)oc2c1)	34,270,000 M^-1s^-1	188 s⁻¹	34,270,000 M-1s-1	5.67 µM	–
Ac-[Dap][Orn][Phe(3-Cl)]K(ClZ)-{ACC} (SMILES CC(=O)N[C@@H](CN)C(=O)N[C@@H](CCCN)C(=O)N[C@@H](Cc1cccc(Cl)c1)C(=O)N[C@@H](CCCCNC(=O)OCc1ccccc1Cl)C(=O)Nc1ccc2c(CC(N)=O)cc(=O)oc2c1)	29,280,000 M^-1s^-1	86.7 s⁻¹	29,280,000 M-1s-1	2.98 µM	–
Ac-[Dap][Orn][Phe(3-Cl)]K-{ACC} (SMILES CC(=O)N[C@@H](CN)C(=O)N[C@@H](CCCN)C(=O)N[C@@H](Cc1cccc(Cl)c1)C(=O)N[C@@H](CCCCN)C(=O)Nc1ccc2c(CC(N)=O)cc(=O)oc2c1)	19,810,000 M^-1s^-1	141 s⁻¹	19,810,000 M-1s-1	7.11 µM	–
Ac-[Dap][Orn][Phe(3-Cl)]L-{ACC} (SMILES CC(=O)N[C@@H](CN)C(=O)N[C@@H](CCCN)C(=O)N[C@@H](Cc1cccc(Cl)c1)C(=O)N[C@@H](CC(C)C)C(=O)Nc1ccc2c(CC(N)=O)cc(=O)oc2c1)	11,290,000 M^-1s^-1	41.8 s⁻¹	11,290,000 M-1s-1	3.7 µM	–
Ac-[Dap][Orn][Phe(3-Cl)]R-{ACC} (SMILES CC(=O)N[C@@H](CN)C(=O)N[C@@H](CCCN)C(=O)N[C@@H](Cc1cccc(Cl)c1)C(=O)N[C@@H](CCCNC(=N)N)C(=O)Nc1ccc2c(CC(N)=O)cc(=O)oc2c1)	36,310,000 M^-1s^-1	195 s⁻¹	36,310,000 M-1s-1	5.38 µM	–
Ac-[Dap][Orn][Phe(3-Cl)][hArg]-{ACC} (SMILES CC(=O)N[C@@H](CN)C(=O)N[C@@H](CCCN)C(=O)N[C@@H](Cc1cccc(Cl)c1)C(=O)N[C@@H](CCCCNC(=N)N)C(=O)Nc1ccc2c(CC(N)=O)cc(=O)oc2c1)	30,500,000 M^-1s^-1	123 s⁻¹	30,500,000 M-1s-1	4.21 µM	–
